Measured values reported in article PMC6934184, “Selective DNA-PKcs inhibition extends the therapeutic index of localized radiotherapy and chemotherapy” (The Journal of Clinical Investigation, 2019).

Target: T1, MAPK9 (JNK2) (Homo sapiens, UniProt P45984)
T1 construct: purchased Thermo Fisher Scientific (Life Technologies) SelectScreen
Test: SelectScreen Z'LYTE
Format: biochemical
Details: ATP 100 µM
Method in brief: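 SelectScreen broad panel; activity (Z'LYTE, Adapta) plus binding formats. ATP: Km app for CSF1R Z'LYTE; 10 for CAMK1 Adapta. Readout = % per kinase.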

T1 sequence (P45984 whole entry): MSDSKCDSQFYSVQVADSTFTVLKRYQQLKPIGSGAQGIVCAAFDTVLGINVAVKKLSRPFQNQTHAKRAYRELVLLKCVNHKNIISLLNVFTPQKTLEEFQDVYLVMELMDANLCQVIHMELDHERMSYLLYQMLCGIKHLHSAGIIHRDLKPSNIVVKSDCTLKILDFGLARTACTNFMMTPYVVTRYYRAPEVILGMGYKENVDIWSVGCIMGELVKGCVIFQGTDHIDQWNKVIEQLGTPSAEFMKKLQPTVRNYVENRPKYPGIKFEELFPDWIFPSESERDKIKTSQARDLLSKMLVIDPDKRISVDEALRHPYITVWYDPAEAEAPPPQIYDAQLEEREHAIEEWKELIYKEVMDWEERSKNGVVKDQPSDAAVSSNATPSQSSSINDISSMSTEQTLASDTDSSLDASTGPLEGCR

## CN(C(=O)CN1CCOCC1)c1ccc2sc3c(-c4cccc5c(=O)cc(N6CC7CCC(C6)O7)oc45)cccc3c2c1 [NU5455]
  inhibition at 1 µM: 2.8%
